Measurements published in ChEMBL document CHEMBL2407087, “Casuarinines A-J, lycodine-type alkaloids from Lycopodiastrum casuarinoides” (J Nat Prod, 2013).
The source made the active and inactive calls. The rule behind the calls is not given here.

Columns and labels:
[1] = target: T1, Acetylcholinesterase (Rattus norvegicus) (UniProt P37136); test: Reversible inhibition of rat cortical AChE up to 8 mins
T1 sequence (whole entry): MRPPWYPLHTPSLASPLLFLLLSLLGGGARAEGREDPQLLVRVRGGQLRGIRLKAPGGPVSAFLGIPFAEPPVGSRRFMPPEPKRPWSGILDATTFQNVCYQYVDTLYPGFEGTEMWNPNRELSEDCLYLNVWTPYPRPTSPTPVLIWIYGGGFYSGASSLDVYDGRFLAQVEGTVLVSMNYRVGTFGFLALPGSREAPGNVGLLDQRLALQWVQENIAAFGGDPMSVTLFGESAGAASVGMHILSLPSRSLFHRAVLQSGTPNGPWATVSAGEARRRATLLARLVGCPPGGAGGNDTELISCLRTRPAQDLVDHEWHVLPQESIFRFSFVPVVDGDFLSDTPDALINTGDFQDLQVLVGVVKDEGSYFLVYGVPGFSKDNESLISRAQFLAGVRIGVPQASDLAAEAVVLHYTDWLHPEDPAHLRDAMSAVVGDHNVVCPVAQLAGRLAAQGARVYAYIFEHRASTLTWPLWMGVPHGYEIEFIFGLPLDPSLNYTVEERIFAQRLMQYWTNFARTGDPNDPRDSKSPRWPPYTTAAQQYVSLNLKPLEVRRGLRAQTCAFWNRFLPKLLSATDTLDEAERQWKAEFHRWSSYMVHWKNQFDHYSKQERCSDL

Acetylcholinesterase [2] = target: Acetylcholinesterase (Homo sapiens, UniProt P22303); test: Inhibition of AChE (unknown origin) using acetylthiocholine iodide as substrate after 8 mins by Ellman's spectrophotometric method
Chain of Acetylcholinesterase (Homo sapiens, UniProt P22303) (P22303 whole entry): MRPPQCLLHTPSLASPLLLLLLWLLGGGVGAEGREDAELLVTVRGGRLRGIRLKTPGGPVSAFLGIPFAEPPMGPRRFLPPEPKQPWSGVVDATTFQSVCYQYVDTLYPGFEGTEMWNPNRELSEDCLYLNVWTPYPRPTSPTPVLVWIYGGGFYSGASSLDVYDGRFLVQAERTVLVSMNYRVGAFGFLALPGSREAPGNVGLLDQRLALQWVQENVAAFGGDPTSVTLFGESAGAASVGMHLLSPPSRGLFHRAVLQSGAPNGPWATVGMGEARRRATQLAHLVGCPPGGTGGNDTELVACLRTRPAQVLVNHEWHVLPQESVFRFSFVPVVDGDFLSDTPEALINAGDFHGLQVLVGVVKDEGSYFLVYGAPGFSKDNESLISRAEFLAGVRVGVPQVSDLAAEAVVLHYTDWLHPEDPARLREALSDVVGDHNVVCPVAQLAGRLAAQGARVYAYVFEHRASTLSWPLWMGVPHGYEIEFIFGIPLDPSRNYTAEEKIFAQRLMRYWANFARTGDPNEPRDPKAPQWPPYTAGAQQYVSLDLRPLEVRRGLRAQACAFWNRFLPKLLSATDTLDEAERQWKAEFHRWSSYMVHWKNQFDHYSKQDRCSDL

Acetylcholinesterase [3] = target: T2, Acetylcholinesterase (Mus musculus, UniProt P21836); test: Inhibition of mouse skeletal AChE
T2 sequence (P21836 whole entry): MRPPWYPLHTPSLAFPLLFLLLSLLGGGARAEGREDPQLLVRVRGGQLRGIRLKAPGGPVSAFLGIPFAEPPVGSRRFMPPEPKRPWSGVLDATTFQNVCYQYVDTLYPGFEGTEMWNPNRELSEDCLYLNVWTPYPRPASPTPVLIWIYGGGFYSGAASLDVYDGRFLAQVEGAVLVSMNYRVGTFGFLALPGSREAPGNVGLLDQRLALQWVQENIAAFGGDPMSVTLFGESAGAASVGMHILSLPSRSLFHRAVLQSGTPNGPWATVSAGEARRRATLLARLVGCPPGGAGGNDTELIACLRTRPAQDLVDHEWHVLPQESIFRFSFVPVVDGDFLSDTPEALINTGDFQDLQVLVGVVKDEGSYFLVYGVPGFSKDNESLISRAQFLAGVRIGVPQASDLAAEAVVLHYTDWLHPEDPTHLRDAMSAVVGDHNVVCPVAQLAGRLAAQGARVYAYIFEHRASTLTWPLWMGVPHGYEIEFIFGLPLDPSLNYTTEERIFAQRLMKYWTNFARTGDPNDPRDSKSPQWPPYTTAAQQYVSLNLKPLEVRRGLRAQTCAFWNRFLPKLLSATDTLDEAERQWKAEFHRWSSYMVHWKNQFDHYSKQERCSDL

[4] = target: T1, Acetylcholinesterase (Rattus norvegicus); test: Mixed-type competitive inhibition of rat cortical AChE by Lineweaver-Burke plot analysis
[5] = Neuroprotective activity in human SH-SY5Y cells assessed as protection against H2O2-induced reduction of cell viability at 10 uM treated 2 hrs before H2O2 addition measured after 24 hrs by MTT assay relative to control; assay type: functional, cell-based
[6] = Neuroprotective activity in human SH-SY5Y cells assessed as protection against H2O2-induced reduction of cell viability at 10 uM treated 2 hrs before H2O2 addition measured after 24 hrs by MTT assay relative to H2O2 treated control; assay type: functional, cell-based
[7] = Neuroprotective activity in human SH-SY5Y cells assessed as protection against H2O2-induced reduction of cell viability at 1 uM treated 2 hrs before H2O2 addition measured after 24 hrs by MTT assay relative to control; assay type: functional, cell-based
[8] = Neuroprotective activity in human SH-SY5Y cells assessed as protection against H2O2-induced reduction of cell viability at 100 uM treated 2 hrs before H2O2 addition measured after 24 hrs by MTT assay relative to control; assay type: functional, cell-based
[9] = Neuroprotective activity in human SH-SY5Y cells assessed as protection against H2O2-induced reduction of cell viability at 100 uM treated 2 hrs before H2O2 addition measured after 24 hrs by MTT assay relative to H2O2 treated control; assay type: functional, cell-based

SMILES	inhibition [1]	IC50 (Acetylcholinesterase [2])	inhibition [4]	other results
C=C[C@@H]1[C@H]2C=C(C)C[C@]1(NC)c1ccc(=O)[nH]c1C2	Active	15 µM	Active	IC50 (Acetylcholinesterase [3]): 2 µM
C=C[C@@H]1[C@@H]2Cc3[nH]c(=O)ccc3[C@@]1(N)C[C@H](C)C2				Activity [5]: 55.5%; Activity [6]: 12%; Activity [7]: 49.1%
CC1=C[C@H]2Cc3[nH]c(=O)ccc3[C@@]3(C1)[C@@H]2[C@H](C)CN3C	Active	12.1 µM		
CC1=C[C@H]2Cc3[nH]c(=O)ccc3[C@@]3(C1)[C@@H]2[C@H](Cl)CCN3C	Active	20.9 µM	Active	
C=C[C@@H]1[C@H]2C=C(C)C[C@]1(N)c1ccc(=O)[nH]c1C2	Active		Active	
CC(=O)N[C@@H](CS)C(=O)O				Activity [8]: 55.8%; Activity [9]: 12.3%
